Test results: US9522163B2, “Methods of treating hepatitis” (priority 2002, dated 2016)

What was measured:
primary rat hepatocytes = assay: TNF-α induced apoptosis in rat hepatocytes; format: cell-based; conditions: exposure to CO
Method: Cells were treated with TNF-α (10 ng/ml) and actinomycin-D (Act-D; 200 ng/ml, Sigma Chemical Co. St. Louis, Mo.) to induce cell death.
Thus, the effects of CO were independent of the cGMP/p38 MAPK pathway. In these experiments, hepatocytes were pre-treated with CO for one hour prior to addition of TNF-α/ActD to the medium.

NF-κB = NF-κB luciferase reporter assay in hepatocytes; format: cell-based, mouse; conditions: CO 250 ppm; reporter activity peaked one hour after placing cells in CO
Method: In some experiments, gene transfer of an IκBα superrepressor (Hellerbrand et al., Hepatology 27:1285-1295 (1998)) or β-galactosidase using adenoviral vectors (10 pfu/cell) was performed 12 hours prior to TNF-α/ActD treatment. NF-κB activation was evaluated using a luciferase reporter assay as described in Chow et al. (J. Biol. Chem. 274: 10689-10692 (1999)). Briefly, hepatocytes were co-transfected with NF-κB reporter constructs (pGL3-kappaβ luciferase, 100 ng/well; and pIEP-Lac-z 0.5 μg/well) using Lipofectin™ (Invitrogen, Carlsbad, Calif.) as instructed by the manufacturer. Evaluation of iNOS expression was performed using a luciferase reporter assay as described in Lowenstein et al. (Proc. Natl. Acad. Sci. U.S.A 90: 9730-9734 (1993)). Briefly, hepatocytes were co-transfected with iNOS promoter reporter constructs (pXP2; 1 μg/well) and pIEP-LacZ (0.5 μg/well) as described above.
Hepatocytes were transfected with plasmids as described above and treated with various stimuli 24 hours after transfection. […] Results were corrected for transfection efficiency and protein concentration.
To generate the data presented in FIG. 4, evaluation of NF-κB activation was performed using a luciferase reporter assay as described in Chow et al. (J. Biol. Chem. 274: 10689-10692 (1999)). […]

iNOS = iNOS protein immunoblot in hepatocytes; format: cell-based; conditions: TNF-α/ActD 6-8 hr in presence of CO 250 ppm vs TNF-α alone
Method: Western blot analysis was performed on primary hepatocytes in culture or from liver homogenates with antibodies to iNOS (Transduction Laboratories, Lexington, Ky.; 1:1000), HO-1 (Calbiochem; 1:2000), or β-actin (Sigma Chemical; 1:5000). Thirty μg protein in cell culture experiments or 100 μg protein from liver homogenates was loaded per well for SDS-PAGE.
To generate the data in FIG. 8, expression of iNOS protein was evaluated using immunoblotting techniques. Briefly, cell extracts from hepatocytes were treated with TNF-α/ActD for 6-8 hr in the presence and absence of CO (250 ppm). Control cells received air or CO alone.

SMILES: [C-]#[O+] [CO, carbon monoxide]
- TNF-α induced apoptosis (primary rat hepatocytes): inhibited TNF-α induced apoptosis
- NF-κB activation (luciferase reporter, EMSA, immunostaining) (NF-κB): moderate increase
- iNOS protein (iNOS): markedly increased
